Results taken from patent US20130136722A1, “Methods of Ex Vivo Expansion of Blood Progenitor Cells, and Generation of Composite Grafts” (The Board of Trustees of The University of Illinois, priority 2011, published 2013).
Values joined by “and” are separate entries in the source; they are usually repeats but may differ in a detail not shown here. Identical values can stand only once.

System: cord blood-derived CD34+CD90+ cells
Test: Ex vivo expansion culture of cord blood CD34+ cells with chromatin modifying agents, flow cytometry for CD34/CD90
Assay type: cell-based, human
From the text: Freshly collected human CB was obtained from the New York Blood Center (New York, N.Y.) according to Institutional Review Board guidelines. Low density CB cells (<1.077 g/ml) were obtained by density centrifugation on Ficoll-Paque PLUS (GE Healthcare Bio-Sciences AB, Uppsala, Sweden), from which CD34^+ cells were immunomagnetically isolated by the MACS CD34 progenitor isolation kit (Miltenyi Biotech, Inc., Auburn, Calif.) as described in Araki et al., 2009, Exp Hematol. 37: 1084-1095). The purity of isolated CD34^+ cells routinely ranged from 90-99%.
CD34^+ cell expansion culture with or without CMA was carried out as described (Araki et al., 2009, Id.; Araki et al. 2006, Exp Hematol. 34: 140-149; Araki et al, 2007, Blood 109: 3570-3578.). All other HDAC inhibitors including 1 mM VPA (Sigma), TSA (5 ng/mL), NA (5 mM) or 5 μM of Suberoylanilide hydroxamic acid (SAHA; BioVision, Inc. Mountain View, Calif.) was added twice at 0 hr and after changing media at 48 hrs of culture. HDAC inhibitors were added only once (48 hr) when used in combination with a DNMT inhibitor as described (Araki et al., 2009, Id.; Araki et al., 2006, Id.; Himburg et al., 2010, Nat. Med. 16: 475-482).
Flow cytometric analysis was carried out as described (Araki et al., 2009, Id.; Araki et al. 2006, Id.; Araki et al, 2007, Id.). All antibodies were purchased from BD Bioscience (San Jose, Calif.). All analyses were paired with the corresponding matched isotype control and at least 10,000 live cells were acquired for each analysis (CellQuest software, Becton Dickinson).
In order to compare the effects of various chromatin modifying agents (CMAs) on the degree of expansion of cord blood-derived, primitive subpopulation of CD34^+ cells, valproic acid (VPA), trichostatin A (TSA), nicotinic acid (NA), suberoylanilide hydroxamic acid (SAHA) or 5-aza-2′-deoxycytidine (5azaD) as single agents or in combination was tested in vitro. The results of fluorescence-activated cell sorting experiments performed on cord blood-derived CD34^+/CD90^+ cells treated with CMA agents is shown in FIG. 1A.

SMILES: CCCC(CCC)C(=O)O [VPA, valproic acid]
- cells co-expressing CD34+ and CD90+ (9 days of culture, cytokines (SCF, Flt3-ligand, TPO, IL-3) plus CMA, FIG. 1A): 42.2%
- fold expansion of CD34+CD90+ cells (9 days of culture, cytokines plus CMA, FIG. 1B): 64.6±3.7 fold and 65 fold
- CD34+CD90+ (%) (mean ± SEM of three independent experiments): 42.17 ± 13.45 %
